Entries after “also recorded” stand apart in the source; their conditions may differ.
What was measured:
[1] = test system: EBOV-GFP (recombinant Ebola Zaire virus expressing green fluorescence protein); assay: microbe, parasite or virus in culture; format: cell-based; settings: Zaire ebolavirus, Vero C1008, 48 h, read-out: EBOV % Inhibition (20 μM)
EBOV-GFP = assay: microbe, parasite or virus in culture; format: cell-based, Ebola Zaire virus
[2] = test system: Rift Valley Fever Virus (ZH501 strain); format: cell-based
[3] = test system: influenza virus (H1N1 A/Texas strain); format: cell-based
[4] = test system: Lassa virus (Josiah strain); format: cell-based
GFP-EBOV = format: cell-based, Ebola Zaire virus
[5] = test system: MPXV-GFP (recombinant monkeypox virus expressing GFP, Zaire strain); assay: microbe, parasite or virus in culture; format: cell-based; settings: Vero C1008, in Primates, 48 h, read-out: Monkey Pox % Inhibition (20 μM)
[6] = test system: cowpox virus (CPXV, egfpCPV virus); set-up: species or system mice; settings: mouse, in vivo

Structure (SMILES) | inhibition at 20 µM [1] | dose dependent antiviral activity toward EBOV-GFP (EBOV-GFP) | IC50 (EBOV-GFP; Zaire ebolavirus, Vero C1008, read-out: IC50 (read from graphs of % of control infection)) | antiviral activity toward RVFV [2] | antiviral activity toward influenza virus [3] | antiviral activity toward LV (Lassa virus) [4] | effect of 24 hours pre-treatment of cells versus treatment during and after infection (GFP-EBOV) | inhibition at 20 µM [5] | IC50 toward EBOV (in words) (EBOV-GFP) | inhibition of influenza virus replication [3] | inhibition of Lassa virus replication [4] | mean time to death [6]
N=C(N)c1ccc2oc(C=Cc3nc4cc(C(=N)N)ccc4[nH]3)cc2c1 [NSC 369723, 2-(2-(5-(amino(imino)methyl)-1-benzofuran-2-yl)vinyl)-1H-benzimidazole-5-carboximidamide] | 94% | dose dependent antiviral activity | ~4 µM | not | not | not | more effective than treatment during and after infection | – | – | – | – | –
Cc1cc(NCCCN(C)C)c2ccc3c(ccc4c(NCCCN(C)C)cc(C)nc43)c2n1 [NSC 306365, N,N′-bis(3-dimethylaminopropyl)-3,9-dimethylquinolino[8,7-h]quinoline-1,7-diamine] | 99% | dose dependent antiviral activity | – | showed antiviral activity; also recorded: dose-dependent inhibition; also recorded: dose dependent antiviral activity | showed antiviral activity | showed antiviral activity; also recorded: dose dependent inhibition | – | 99% | submicromolar | half log; also recorded: inhibit the replication | one log; also recorded: inhibit the replication | increase in the mean time to death; also recorded: prolongs the mean time to death

— patent US7999001B2 (priority 2007, dated 2011)
